“Also recorded” adds a separate entry of the source.
Key:
carotid sinus nerve [1] = assay: isolated carotid body/carotid sinus nerve preparation, wild-type mouse
Text: FIGS. 1A-1D show the effects of Compound A, a benzyl-diaminopyrimidine P2X3 antagonist which is seen to reduce carotid sinus nerve activity and excitatory responses to hypoxia and ATP (or analogs), in an isolated preparation of carotid body/carotid sinus nerves. […] As shown, the dual P2X3 and P2X2/3 antagonist Compound A attenuates basal tonic firing and hypoxia-induced excitation of carotid sinus afferents in an isolated carotid body preparation of mouse. […] The IC50 is in the range between 10-30 μM.

carotid sinus nerve [2] = assay: isolated carotid body/carotid sinus nerve preparation, P2X2 KO mouse (homotrimeric P2X3 mediated responses)
carotid sinus nerve [3] = assay: isolated carotid body/carotid sinus nerve preparation, P2X3 KO mouse (homotrimeric P2X2 mediated responses)

IC50 (carotid sinus nerve [1]; Mus musculus, wild type preparations, reversible, read-out: IC50 for inhibition of the response of sinus nerve to hypoxia) [µM]	SMILES	basal tonic firing and hypoxia-induced excitation of carotid sinus afferents (carotid sinus nerve [1]; wild-type mouse isolated carotid body preparation)	basal tonic firing and hypoxia, α,β-MeATP induced excitation of carotid sinus afferents (carotid sinus nerve [2]; P2X2 KO mouse isolated carotid body preparation)	potency compared with wild type (carotid sinus nerve [2]; P2X2 KO mouse, lower concentrations effective)	basal tonic firing and hypoxia or ATP-induced excitation of carotid sinus afferents (carotid sinus nerve [3])
10 to 30	COc1cc(Cc2cnc(N)nc2N)c(C(C)C)cc1OC [Compound A]	attenuates; also recorded: attenuation	attenuates	Greater potency; also recorded: more sensitively observed	fails to attenuate; also recorded: no longer sensitive to inhibition
–	Cc1nc(N=Nc2ccc(S(=O)(=O)O)cc2S(=O)(=O)O)c(COP(=O)(O)O)c(C=O)c1O [PPADS]	–	–	–	inhibitory activity

From US10195198B2, “Methods and compositions for treating diseases and conditions” (Afferent Pharmaceuticals Inc., priority 2014, dated 2019)
